Reference: patent US6339042B1, “Herbicidal N-cyclohexadienyl heteroaryloxyacetamides” (American Cyanamid Co., priority 1999, dated 2002)

Key:
Details in all cases: three weeks after treatment
Amaranthus tuberculatus [1] = experiment: Pre-emergence herbicidal evaluation, AMATA; type: in vivo
Source text: (§1) The treated pots are then placed on greenhouse benches, watered and cared for in accordance with conventional greenhouse procedures.

Galium aparine [2] = experiment: Pre-emergence herbicidal evaluation, GALAP; type: in vivo
Source text: as §1

Alopecurus myosuroides [3] = experiment: Pre-emergence herbicidal evaluation, ALOMY; type: in vivo
Source text: as §1

Apera spica venti [4] = experiment: Pre-emergence herbicidal evaluation, APESV; type: in vivo
Source text: as §1

Echinochloa crus-galli [5] = experiment: Pre-emergence herbicidal evaluation, ECHCG; type: in vivo
Source text: as §1

Setaria viridis [6] = experiment: Pre-emergence herbicidal evaluation, SETVI; type: in vivo
Source text: as §1

Lolium perenne [7] = experiment: Pre-emergence herbicidal evaluation, LOLPE; type: in vivo
Source text: as §1

Triticum aestivum [8] = experiment: Pre-emergence herbicidal evaluation, TRZAW; type: in vivo
Source text: as §1

Hordeum vulgare [9] = experiment: Pre-emergence herbicidal evaluation, HORVW; type: in vivo
Source text: as §1

Zea mays [10] = experiment: Pre-emergence herbicidal evaluation, ZEAMX; type: in vivo
Source text: as §1

Glycine max [11] = experiment: Pre-emergence herbicidal evaluation, GLXMA; type: in vivo
Source text: as §1

Oryza sativum [12] = experiment: Pre-emergence herbicidal evaluation, ORYSA; type: in vivo
Source text: as §1

Amaranthus tuberculatus [13] = experiment: Post-emergence herbicidal evaluation, AMATA; type: in vivo
Galium aparine [14] = experiment: Post-emergence herbicidal evaluation, GALAP
Alopecurus myosuroides [15] = experiment: Post-emergence herbicidal evaluation, ALOMY
Procedure: The compounds of the invention are tested for pre- and post-emergence herbicidal activity.
(§2) Each pot is examined three weeks after treatment and phytotoxicity is assessed according to the rating system set forth below.
(§3) These acetone solutions are diluted with water and the resulting formulations applied at dosage levels equivalent of about 0.4 to 0.1 kg per hectare of test compound per pot. After spraying the plants are placed on greenhouse benches and are cared for in the usual manner, commensurate with conventional greenhouse practices.

Apera spica venti [16] = experiment: Post-emergence herbicidal evaluation, APESV
Echinochloa crus-galli [17] = experiment: Post-emergence herbicidal evaluation, ECHCG
Setaria viridis [18] = experiment: Post-emergence herbicidal evaluation, SETVI
Lolium perenne [19] = experiment: Post-emergence herbicidal evaluation, LOLPE
Triticum aestivum [20] = experiment: Post-emergence herbicidal evaluation, TRZAW
Hordeum vulgare [21] = experiment: Post-emergence herbicidal evaluation, HORVW
Zea mays [22] = experiment: Post-emergence herbicidal evaluation, ZEAMX
Procedure: as §2, §3

Glycine max [23] = experiment: Post-emergence herbicidal evaluation, GLXMA
Oryza sativum [24] = experiment: Post-emergence herbicidal evaluation, ORYSA

CC1=CC(N(C(=O)COc2nc3ccccc3o2)C(C)C)=CC(C)(C)C1 [Example 17]
4 (4 - Injury): phytotoxicity rating AMATA (Amaranthus tuberculatus [1]; 0.100 kg/ha) | phytotoxicity rating ECHCG (Echinochloa crus-galli [5]; 0.100 kg/ha) | phytotoxicity rating TRZAW (Triticum aestivum [8]; 0.800 kg/ha) | phytotoxicity rating HORVW (Hordeum vulgare [9]; 0.800 kg/ha) | phytotoxicity rating ORYSA (Oryza sativum [12]; 0.400 kg/ha) | phytotoxicity rating ORYSA (Oryza sativum [12]; 0.800 kg/ha) | phytotoxicity rating AMATA (Amaranthus tuberculatus [13]; 0.200 kg/ha) | phytotoxicity rating GALAP (Galium aparine [14]; 0.400 kg/ha) | phytotoxicity rating ECHCG (Echinochloa crus-galli [17]; 0.200 kg/ha) | phytotoxicity rating LOLPE (Lolium perenne [19]; 0.100 kg/ha) | phytotoxicity rating ORYSA (Oryza sativum [24]; 0.400 kg/ha)
8 (8 - Approaching complete kill): phytotoxicity rating APESV (Apera spica venti [4]; 0.200 kg/ha) | phytotoxicity rating SETVI (Setaria viridis [6]; 0.400 kg/ha) | phytotoxicity rating SETVI (Setaria viridis [6]; 0.800 kg/ha) | phytotoxicity rating ALOMY (Alopecurus myosuroides [15]; 0.400 kg/ha) | phytotoxicity rating APESV (Apera spica venti [16]; 0.200 kg/ha) | phytotoxicity rating APESV (Apera spica venti [16]; 0.400 kg/ha) | phytotoxicity rating LOLPE (Lolium perenne [19]; 0.400 kg/ha)
6 (6 - Herbicidal effect): phytotoxicity rating ALOMY (Alopecurus myosuroides [3]; 0.200 kg/ha) | phytotoxicity rating ALOMY (Alopecurus myosuroides [3]; 0.400 kg/ha) | phytotoxicity rating ECHCG (Echinochloa crus-galli [5]; 0.200 kg/ha) | phytotoxicity rating ALOMY (Alopecurus myosuroides [15]; 0.200 kg/ha) | phytotoxicity rating APESV (Apera spica venti [16]; 0.100 kg/ha) | phytotoxicity rating ECHCG (Echinochloa crus-galli [17]; 0.400 kg/ha) | phytotoxicity rating SETVI (Setaria viridis [18]; 0.200 kg/ha) | phytotoxicity rating SETVI (Setaria viridis [18]; 0.400 kg/ha) | phytotoxicity rating GLXMA (Glycine max [23]; 0.400 kg/ha)
3 (3 - Moderate effect): phytotoxicity rating ALOMY (Alopecurus myosuroides [3]; 0.100 kg/ha) | phytotoxicity rating SETVI (Setaria viridis [6]; 0.100 kg/ha) | phytotoxicity rating ZEAMX (Zea mays [10]; 0.800 kg/ha) | phytotoxicity rating ORYSA (Oryza sativum [12]; 0.200 kg/ha) | phytotoxicity rating AMATA (Amaranthus tuberculatus [13]; 0.100 kg/ha) | phytotoxicity rating GALAP (Galium aparine [14]; 0.200 kg/ha) | phytotoxicity rating ALOMY (Alopecurus myosuroides [15]; 0.100 kg/ha) | phytotoxicity rating ECHCG (Echinochloa crus-galli [17]; 0.100 kg/ha) | phytotoxicity rating GLXMA (Glycine max [23]; 0.100 kg/ha) | phytotoxicity rating GLXMA (Glycine max [23]; 0.200 kg/ha) | phytotoxicity rating ORYSA (Oryza sativum [24]; 0.200 kg/ha)
7 (7 - Good herbicidal effect): phytotoxicity rating APESV (Apera spica venti [4]; 0.100 kg/ha) | phytotoxicity rating ECHCG (Echinochloa crus-galli [5]; 0.400 kg/ha) | phytotoxicity rating LOLPE (Lolium perenne [19]; 0.200 kg/ha)
2 (2 - Slight effect): phytotoxicity rating TRZAW (Triticum aestivum [8]; 0.200 kg/ha) | phytotoxicity rating TRZAW (Triticum aestivum [8]; 0.400 kg/ha) | phytotoxicity rating HORVW (Hordeum vulgare [9]; 0.200 kg/ha) | phytotoxicity rating HORVW (Hordeum vulgare [9]; 0.400 kg/ha) | phytotoxicity rating ORYSA (Oryza sativum [12]; 0.100 kg/ha) | phytotoxicity rating TRZAW (Triticum aestivum [20]; 0.400 kg/ha)
1 (1 - Trace effect): phytotoxicity rating TRZAW (Triticum aestivum [8]; 0.100 kg/ha) | phytotoxicity rating HORVW (Hordeum vulgare [9]; 0.100 kg/ha) | phytotoxicity rating ZEAMX (Zea mays [10]; 0.400 kg/ha) | phytotoxicity rating GLXMA (Glycine max [11]; 0.800 kg/ha) | phytotoxicity rating GALAP (Galium aparine [14]; 0.100 kg/ha) | phytotoxicity rating TRZAW (Triticum aestivum [20]; 0.200 kg/ha) | phytotoxicity rating ZEAMX (Zea mays [22]; 0.400 kg/ha)
5 (5 - Definite injury): phytotoxicity rating AMATA (Amaranthus tuberculatus [1]; 0.200 kg/ha) | phytotoxicity rating AMATA (Amaranthus tuberculatus [1]; 0.400 kg/ha) | phytotoxicity rating SETVI (Setaria viridis [6]; 0.200 kg/ha) | phytotoxicity rating LOLPE (Lolium perenne [7]; 0.100 kg/ha) | phytotoxicity rating AMATA (Amaranthus tuberculatus [13]; 0.400 kg/ha) | phytotoxicity rating SETVI (Setaria viridis [18]; 0.100 kg/ha)
0 (0 - No effect): phytotoxicity rating GALAP (Galium aparine [2]; 0.100 kg/ha) | phytotoxicity rating GALAP (Galium aparine [2]; 0.200 kg/ha) | phytotoxicity rating GALAP (Galium aparine [2]; 0.400 kg/ha) | phytotoxicity rating GALAP (Galium aparine [2]; 0.800 kg/ha) | phytotoxicity rating ZEAMX (Zea mays [10]; 0.100 kg/ha) | phytotoxicity rating ZEAMX (Zea mays [10]; 0.200 kg/ha) | phytotoxicity rating GLXMA (Glycine max [11]; 0.100 kg/ha) | phytotoxicity rating GLXMA (Glycine max [11]; 0.200 kg/ha) | phytotoxicity rating GLXMA (Glycine max [11]; 0.400 kg/ha) | phytotoxicity rating TRZAW (Triticum aestivum [20]; 0.100 kg/ha) | phytotoxicity rating HORVW (Hordeum vulgare [21]; 0.100 kg/ha) | phytotoxicity rating HORVW (Hordeum vulgare [21]; 0.200 kg/ha) | phytotoxicity rating HORVW (Hordeum vulgare [21]; 0.400 kg/ha) | phytotoxicity rating ZEAMX (Zea mays [22]; 0.100 kg/ha) | phytotoxicity rating ZEAMX (Zea mays [22]; 0.200 kg/ha) | phytotoxicity rating ORYSA (Oryza sativum [24]; 0.100 kg/ha)
9 (9 - Complete kill): phytotoxicity rating AMATA (Amaranthus tuberculatus [1]; 0.800 kg/ha) | phytotoxicity rating ALOMY (Alopecurus myosuroides [3]; 0.800 kg/ha) | phytotoxicity rating APESV (Apera spica venti [4]; 0.400 kg/ha) | phytotoxicity rating APESV (Apera spica venti [4]; 0.800 kg/ha) | phytotoxicity rating ECHCG (Echinochloa crus-galli [5]; 0.800 kg/ha) | phytotoxicity rating LOLPE (Lolium perenne [7]; 0.200 kg/ha) | phytotoxicity rating LOLPE (Lolium perenne [7]; 0.400 kg/ha) | phytotoxicity rating LOLPE (Lolium perenne [7]; 0.800 kg/ha)
